BindingDB's records for doi:10.7270/Q2SN07DK (Burnham Center For Chemical Genomics, 2010)

Target: Beta-galactosidase (Escherichia coli, UniProt Q8VNN2)
Test: PubChem AID 485352

Beta-galactosidase, sequence (Q8VNN2 whole entry): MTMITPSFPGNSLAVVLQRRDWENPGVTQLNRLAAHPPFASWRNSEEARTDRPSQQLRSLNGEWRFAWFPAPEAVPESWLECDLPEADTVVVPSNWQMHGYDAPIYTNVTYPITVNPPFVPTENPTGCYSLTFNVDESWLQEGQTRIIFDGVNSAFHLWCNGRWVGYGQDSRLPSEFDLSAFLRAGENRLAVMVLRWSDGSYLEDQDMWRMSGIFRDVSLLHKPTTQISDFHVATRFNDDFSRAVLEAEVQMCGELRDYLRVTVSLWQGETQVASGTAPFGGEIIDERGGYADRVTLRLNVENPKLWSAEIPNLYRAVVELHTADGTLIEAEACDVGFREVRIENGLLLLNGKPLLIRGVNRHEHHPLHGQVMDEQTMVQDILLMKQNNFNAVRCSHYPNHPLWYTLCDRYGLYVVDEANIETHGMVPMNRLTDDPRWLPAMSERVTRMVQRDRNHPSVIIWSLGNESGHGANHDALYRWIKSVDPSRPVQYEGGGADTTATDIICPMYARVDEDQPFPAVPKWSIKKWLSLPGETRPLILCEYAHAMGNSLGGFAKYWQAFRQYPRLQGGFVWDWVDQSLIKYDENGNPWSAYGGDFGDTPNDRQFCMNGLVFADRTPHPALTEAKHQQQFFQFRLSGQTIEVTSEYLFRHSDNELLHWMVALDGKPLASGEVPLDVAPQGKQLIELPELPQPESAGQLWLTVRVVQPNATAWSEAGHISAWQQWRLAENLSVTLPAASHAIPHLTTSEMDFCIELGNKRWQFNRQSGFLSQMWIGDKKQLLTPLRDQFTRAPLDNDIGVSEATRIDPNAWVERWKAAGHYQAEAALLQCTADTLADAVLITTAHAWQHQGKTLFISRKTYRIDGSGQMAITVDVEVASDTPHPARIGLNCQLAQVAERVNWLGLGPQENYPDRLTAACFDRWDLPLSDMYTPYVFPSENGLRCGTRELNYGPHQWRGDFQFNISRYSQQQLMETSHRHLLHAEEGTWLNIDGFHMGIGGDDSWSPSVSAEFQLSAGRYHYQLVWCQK

- EC50: 39.3 µM
SMILES: CCOC(=O)C1C(C)=NC2=C(C(=O)CC(c3cccs3)C2)C1c1cccs1 (stereo unspecified) [2-Methyl-5-oxo-4,7-di-thiophen-2-yl-1,4,5,6,7,8-hexahydro-quinoline-3-carboxylic acid ethyl ester]
